Reference: patent US12162935B2, “Regimens, compositions and methods with capsaicin and TNF-alpha inhibitor” (priority 2018, dated 2024)

Legend:
Wistar rats [1] = test: ABR threshold shifts, cisplatin-induced hearing loss; type: in vivo, rat
Description: Adult male Wistar rats (200-350 g) (from Envigo) were used for this study. Rats were housed in a temperature controlled room with a twelve hour light/dark cycle. They had free access to commercial food and water provided by the SIU Laboratory Animal Care facility.
Prior to experiments, rats were anesthetized with ketamine HCl/xylazine mixture (24.6/3 mg/kg) and then placed in a sound-attenuation chamber (Industrial Acoustic Company, Inc.). Body temperature of the rats was maintained at 37° C. with an animal blanket system. Pretreatment auditory brainstem responses (ABRs) was performed using an IHS-High-frequency System (Intelligent Hearing Systems, Miami, FL). The rats were exposed to acoustic stimuli via HIS transducers that were directly placed at the entrance of the ear canal. ABR thresholds were obtained for 5 ms duration tone bursts at 8, 16 and 32 kHz at a rate of 50/s. Thresholds were determined by visually produced lowest intensity evoked potentials (EP) that progressed in 10 dB steps. Evoked potentials (Eps) were amplified to 200,000×, and were band pass filtered (100-3000 Hz) and averaged over 1024 sweeps [Mukherjea et al., 2010].
At the end of auditory testing, the anesthetized animals were decapitated and the cochlea harvested. The SIU Laboratory Animal Care and Use Committee approved all animal procedures.
Male Wistar rats were anesthetized using ketamine/xylazine cocktail. The tympanic membrane was punctured as described in [Mukherjea et al., 2010].

rat cochlea [2] = test: Immunolabelling of mid-modiolar cochlear sections, fluorescent intensity analyses; type: in vivo
Description: Cochleae were perfused with a 4% paraformaldehyde solution, cochleae were decalcified for 7-10 days in 120 mM EDTA, embedded them in paraffin and then sectioned the specimens [Mukherjea et al., 2010]. Slides were deparaffined, rehydrated and then stained with primary and secondary antibodies. Glass coverslips were mounted on the specimens with ProLong Diamond mounting medium. Images were obtained using a Leica confocal microscope (Buffalo Grove, IL).
Image J software was used to analyze the mean gray area for the various images. These values were then used to quantify the increase or decrease in % fluorescence intensity of the various regions of the samples compared to control.

Wistar rats [3] = test: Restoration of hearing after permanent threshold shifts (Example 10B); type: in vivo, rat; conditions: treatment after PTS at 4 weeks; oral capsaicin 5 mg/kg 3 days, ETA 1 mg/kg s.c. day 2, three weeks
Description: FIG. 23A is a schematic showing the experimental paradigm used in Example 10B. Pre-treatment baseline ABRs were performed in naïve male Wistar rats. The rats were then used either as sham controls (no noise exposure) or exposed-noise (122 dB, OBN centered at 16 kHz for 1 hour). Post noise exposure ABRs were repeated at 4 weeks to establish permanent threshold shifts (PTS). […] Final ABR threshold values were evaluated at week 9 post noise exposure.
Values shown in FIGS. 23A-23C and otherwise provided with respect to this Example 10B are expressed as the mean±SEM. Statistical significance was analyzed using the ANOVA and Tukey's host hoc analysis.

rat cochlea [4] = test: Cochlear gene expression by q-PCR (cisplatin study); type: in vivo
UB/OC-1 cells = test: Western blot of STAT1, STAT3 and JAK2 phosphorylation; type: cell-based, mouse
outer hair cells (OHCs) = test: Outer hair cell damage by SEM and whole mount hair cell count; type: in vivo, rat
Description: Immediately after completion of post-treatment ABRs, rats were euthanized and their cochleae were harvested and the specimens processed as described previously by [Kamimura et al.]. Sputter-coated cochlea were viewed and photographed with a Hitachi S-500 scanning electron microscope (Hitachi Ltd.). The resulting scanning electron micrographs were examined to determine qualitative morphological characteristics in various regions including the basal, middle, and apical turns of the rat cochlea.
Two representative areas of the basal turn, middle turn, and apex and hook portion were photographed. In each area, outer hair cells (OHCs) were counted in an area that was 10 pillar cell heads in length. The results are presented as the percentage hair cell damage per cochlear turn. At least three cochleae from different animals per treatment group were used.
To study the organization of the outer hair cells and inner hair cells, the cochlear whole mount technique was used. The cochleae was fixed in fresh 4% paraformaldehyde overnight, and then decalcified in […] EDTA for 2 weeks, (pH 7.3) while stirring at room temperature for 2 weeks. After decalcification, the cochleae was microdissected into basal, middle, and apical turns for whole-mount preparation.
For further processing, segments were washed with 1×PBS twice for 5 mins. For blocking, the segments were incubated in 10% blocking serum (horse serum) for 3 hrs at room temperature. The segments were incubated with primary antibody in 0.2% Triton prepared in PBS and refrigerated overnight. The following day, the segments were washed in PBS (three washes) for 5 mins each wash. The segments were washed in secondary antibody for 2 hrs at room temperature in the dark. The antibodies were then washed with PBS (three washes). Glass coverslips were then mounted on the segments with ProLong Diamond Antifade Mountant (Thermo Fisher Scientific) and incubated them at room temperature overnight and then stored them in 4 degrees. Images were procured using a Leica confocal microscope (Buffalo Grove, IL).
For hair cell count in whole mount preparations, two to three random areas from the basal turn from each treatment group separately were selected. Hair cells were counted in […] segments of the cochlea respectively. Counts were averaged across treatment group. This was further normalized as % of PBS (control) by taking the values of control as 100%.

UMSCC-10b cells = test: SCID mouse xenograft model; type: in vivo
Description: SCID mice (from Envigo, 5-6 weeks of age) were injected subcutaneously with 1.5×10^6 mycoplasma-free UMSCC 10B cells in one flank. […] At the time of each treatment, tumor volumes were calculated based on the formula: volume=width2×(length/2) [Jajoo et al.]. Mice were killed 24 h after the eleventh treatment. All procedures were performed in accordance with relevant guidelines and regulations of SIU School of Medicine.

[5] = capsaicin 2.5 μM 30 min and/or cisplatin 2.5 μM 45 min (FIG. 5.E)

SMILES: COc1cc(CNC(=O)CCCC/C=C/C(C)C)ccc1O [capsaicin, 8-methyl-N-vanillyl-trans-6-nonenamide]
- ABR threshold shifts produced by cisplatin (Wistar rats [1]; TT-capsaicin 50 μl of 0.1 μM 24 h prior to cisplatin 11 mg/kg ip, 72 h, 8, 16 and 32 kHz): significantly reduced ABR threshold shifts
- ABR thresholds (Wistar rats [1]; TT-capsaicin alone, 72 h, vs TT vehicle): did not significantly alter ABR thresholds
- ABR threshold (Wistar rats [1]; capsaicin alone by trans-tympanic injection or oral gavage, 72 h): did not significantly alter ABR threshold
- protection against cisplatin-induced ABR threshold shifts (Wistar rats [1]; oral capsaicin 5 mg/kg 24 h prior to cisplatin): did not protect
- cisplatin ABR threshold shift (Wistar rats [1]; oral capsaicin 20 mg/kg 24 h prior to cisplatin (FIG. 11.B)): abrogated
- protection against cisplatin-induced ABR threshold shifts (Wistar rats [1]; oral capsaicin 10 or 20 mg/kg 24 h prior to cisplatin): Significant protection
- TRPV1, NOX3 and iNOS protein expression induced by cisplatin (rat cochlea [2]; capsaicin pre-treatment): significantly decreased
- CB2 expression in three regions of the cochleae (rat cochlea [2]; capsaicin pretreatment before cisplatin): significantly increased the expression of CB2
- p-STAT3/p-STAT1 ratio in cochlear regions (rat cochlea [2]; oral capsaicin pretreatment, compared to cisplatin): significantly increased
- CB2 labelling in the OHCs, SGs and SVA (rat cochlea [2]; single agent): increased CB2 labelling in all the three regions to an even greater extent
- TRPV1, NOX3 and iNOS labelling in the OHCs, SG and SVA (rat cochlea [2]; single agent vs control): did not produce significant change
- p-STAT3/p-STAT1 ratio in cochlear regions (rat cochlea [2]; single agent, 72 h, vs oral PBS): increased the p-STAT3/p-STAT1 ratio in all the three regions of the organ of Corti significantly
- average hearing threshold shifts at 9 weeks (Wistar rats [3]): 15-25 dB
- expression of TRPV1, NOX3 and iNOS (rat cochlea [4]; TT-capsaicin 24 h prior to cisplatin): significant reduction
- expression of TRPV1, NOX3 and iNOS (rat cochlea [4]; capsaicin alone): did not significantly change
- CB2 receptor expression in the rat cochlea (rat cochlea [4]; oral capsaicin): increased the expression of CB2 receptor
- Bax/Bcl-2 ratio, rat cochlea (rat cochlea [4]; oral capsaicin prior to cisplatin): significant decrease
- Bax/Bcl-2 ratio, rat cochlea (rat cochlea [4]; single agent (cisplatin or oral capsaicin alone)): less than half of that observed following cisplatin alone
- JAK2 phosphorylation (UB/OC-1 cells; 2.5 μM, time course): increased activation
- p-STAT1 (UB/OC-1 cells; [5]): 135.4±4%
- p-STAT3 (UB/OC-1 cells; [5]): 173±4%
- p-STAT3/p-STAT1 ratio peak value (UB/OC-1 cells; capsaicin 2.5 μM, reached in 45 min): ~130%
- time of peak STAT1 Ser^727 phosphorylation (UB/OC-1 cells; capsaicin 2.5 μM, returns to baseline by 120 min): 45 min
- p-STAT3/p-STAT1 ratio (UB/OC-1 cells; of control (FIG. 5.F)): 128±4.1%
- stereociliary damage induced by cisplatin (outer hair cells (OHCs); SEM, oral capsaicin): significantly reduced
- loss of outer hair cells (outer hair cells (OHCs); SEM, trans-tympanic capsaicin pretreatment, cisplatin): no significant loss of outer hair cells
- hair cell damage (outer hair cells (OHCs); whole mount, oral capsaicin alone): minimal hair cell damage
- outer hair cell loss compared to control (outer hair cells (OHCs); whole mount, oral capsaicin prior to cisplatin): no significant outer hair cell loss
- cisplatin tumor growth curves (UMSCC-10b cells; oral capsaicin 0.5 mg/kg + cisplatin 2 mg/kg ip): shifted the cisplatin tumor growth curves to the right
- tumor growth (volume, size, weight) (UMSCC-10b cells; single agent: cisplatin 2 mg/kg ip or oral capsaicin 0.5 mg/kg): decreased tumor size and weight, but not significantly
